In US4178449A, “Pyrazolo[1,5-a]pyrimidines and imidazo-[1,5-a]pyrimidines” (American Cyanamid Company, priority 1978, dated 1979):

Legend:
[1] = system: conflict situation (shocks taken) in Wistar strain rats; assay: non-conditioned passive avoidance (conflict) procedure; assay type: in vivo, rat; parameters: key: Active: The test compounds are considered active if the shocks received by the test group are significantly different from the control group by the Mann-Whitney U test; conditions: oral or intraperitoneal, single or graded doses, tested at 30 or 60 minutes, 5 minute interval
Procedure: Another test which has been used to assess anti-anxiety effect is a non-conditioned passive avoidance procedure described by J. R. Vogel, B. Beer and D. E. Clody, "A Simple and Reliable Conflict Procedure for Testing Anti-Anxiety Agents", Psychopharmacologia, 21, 1-7 (1971). A conflict situation is induced in rats by a modification of this method. Groups of 6 naive, Wistar strain rats, weighing 200-240 g. each were deprived of water for 48 hours and food for 24 hours. The test compounds were administered in single or graded, oral or intraperitoneal doses suspended in a 2% starch vehicle containing 0.5% v/v polyethylene glycol and one drop of Polysorbate 80. Control animals received the vehicle alone. At 30 or 60 minutes each rat was placed in individual black plexiglass chambers. A 10% dextrose solution was available ad libitum from a tap located in the rear of the chamber. A 0.3 milliampere constant current 60 Hz pulsed DC shocking current was established between the stainless steel grid floor and the tap. After 20 seconds of non-shocked drinking, an alternating 5 second "shock-on" and 5 second "shock-off" cycle began and continued for a total of 5 minutes. The number of shocks taken by each rat during the 5 minute interval was recorded and compared to a control group. […]

[2] = system: 3H-diazepam binding to the brain receptors (rat frontal cortex P2-synaptosomal fraction); assay: inhibition of 3H-diazepam binding to brain receptors; parameters: key: Active: A compound which exhibits the ability to inhibit binding by ≥20% is considered to be active; conditions: 3H-diazepam (1.5 mM.), 20 minutes in ice
Text: Another test used to measure anxiolytic activity comprises measurement of the ability of test compounds to inhibit the binding of ^3 H-diazepam to the brain receptors of warm-blooded animals. The test is described by R. F. Squires in Nature, 266, No. 21 page 732 (April 1977) and H. Mohler and T. Okada, Science, 198, 849 (1977). A modification of this test was employed wherein the animals used were male albino rats of the Wistar strain, weighing 150-200 g. each from Royalhart Farms. Diazepam (methyl-^3 H) was obtained from New England Nuclear. The test compounds were solubilized in either dimethylformamide, acetic acid, ethanol or hydrochloric acid. Frontal cortex of rats was homogenized gently in 20 volumes of ice-cold 0.32 M. sucrose, centrifuged twice at 1000 g. for 10 minutes and then recentrifuged at 30,000 g. for 20 minutes to produce a crude P2 -synaptosomal fraction. The P2 -fraction was resuspended, twice the original volume, in hypotonic 50 mM. Tris.HCl (pH 7.4). The binding assay consisted of 300 μl. of the P2 -fraction suspension (0.350 mg.), 100 μl. of test drug and 100 μl. of ^3 H-diazepam ([…].),. which was added to 1.5 ml. of 50 mM. Tris.HCl (pH 7.4). Non-specific binding controls and total binding controls received 100 μl. of diazepam (3 μm.) and 100 μl. of deionized water, respectively, in place of the test compound. Incubation for 20 minutes proceeded in ice and was terminated by filtration, under vacuum, through Whatman GF/C glass fiber filters. The filters were washed twice with 5 ml. of ice-cold 50 mM. Tris.HCl (pH 7.4) and placed in scintillation vials. After drying at 50°-60° C. for 30 minutes, 10 ml. of Beckman Ready-Solve HP was added and the radioactivity determined in a Beckman Scintillation Counter. The percentage of inhibition of diazepam binding is calculated for each compound. […] Representative compounds of the present invention which were active when tested by the diazepam binding assay are set forth in Table III below.

[3] = system: pentylenetetrazole clonic seizures in rats; assay: protection from convulsions resulting from the administration of pentylenetetrazole; assay type: in vivo, rat; parameters: key: Active: The test compounds are considered active if they protect 50% or more of the rats from clonic seizures; conditions: oral or intraperitoneal, single or graded doses, pentylenetetrazole 21 to 23 mg./kg. i.v. at 30 or 60 minutes
Procedure: The anti-anxiety properties of the novel compounds of the present invention have been established in a test which indicates anxiolytic activity by the measure of protection from convulsions resulting from the administration of pentylenetetrazole. Single or graded dose levels of the test compounds were administered orally or intraperitoneally in a 2% starch vehicle, to groups of at least 4 rats. At 30 or 60 minutes, the rats were treated intravenously with pentylenetetrazole at a dose of 21 to 23 mg./kg. of body weight. This dose is estimated to cause clonic seizures in 99% of unprotected rats. The test compounds are considered active if they protect 50% or more of the rats from clonic seizures. It has been reported [R. T. Hill and D. H. Tedeschi, "Animal Testing and Screening Procedures in Evaluating Psychotropic Drugs" in "An Introduction to Psychopharmacology", Eds. R. R. Rech and K. E. Moore, Raven Press, New York, pp. 237-288 (1971)] that there is a high degree of correlation between antagonism of pentylenetetrazole seizures in rats and anti-anxietyeffects in higher warm-blooded animals.

In the case of c1ccc(-c2ccnc3ccnn23)cc1 [Example 1, 7-Phenylpyrazolo[1,5-a]pyrimidine], the “Result (number of shocks taken vs control, conflict procedure)” value [1] was “Active” and the “Result (inhibition of 3H-diazepam binding)” value [2] was “Active”.
With N#Cc1cnn2c(-c3cccc(C(F)(F)F)c3)ccnc12 [Example 3, 7-(α,α,α-Trifluoro-m-tolyl)pyrazolo[1,5-a]pyrimidine-3-carbonitrile] the “Result (protection from pentylenetetrazole clonic seizures)” value [3] was “Active”, the “Result (number of shocks taken vs control, conflict procedure)” value [1] was “Active” and the “Result (inhibition of 3H-diazepam binding)” value [2] was “Active”.
Cc1nn2c(-c3cccc(C(F)(F)F)c3)ccnc2c1C#N [Example 11, 2-Methyl-7-(α,α,α-trifluoro-m-tolyl)pyrazolo[1,5-a]pyrimidine-3-carbonitrile] was tested, and the “Result (protection from pentylenetetrazole clonic seizures)” value [3] was “Active”, the “Result (number of shocks taken vs control, conflict procedure)” value [1] was “Active” and the “Result (inhibition of 3H-diazepam binding)” value [2] was “Active”.
FC(F)(F)c1cccc(-c2ccnc3ccnn23)c1 [Example 12, 7-(α,α,α-Trifluoro-m-tolyl)pyrazolo[1,5-a]pyrimidine] was tested, and the “Result (protection from pentylenetetrazole clonic seizures)” value [3] was “Active” and the “Result (inhibition of 3H-diazepam binding)” value [2] was “Active”.
For FC(F)(F)c1cccc(-c2ccnc3c(Cl)cnn23)c1 [Example 14, 3-Chloro-7-(α,α,α-trifluoro-m-tolyl)pyrazolo[1,5-a]pyrimidine], the “Result (protection from pentylenetetrazole clonic seizures)” value [3] was “Active” and the “Result (inhibition of 3H-diazepam binding)” value [2] was “Active”.
With FC(F)(F)c1cccc(-c2ccnc3c(Br)cnn23)c1 [Example 15, 3-Bromo-7-(α,α,α-trifluoro-m-tolyl)pyrazolo[1,5-a]pyrimidine] the “Result (protection from pentylenetetrazole clonic seizures)” value [3] was “Active” and the “Result (inhibition of 3H-diazepam binding)” value [2] was “Active”.
For N#Cc1c(C(N)=O)nn2c(-c3cccc(C(F)(F)F)c3)ccnc12 [Example 19, 3-Cyano-7-(α,α,α-trifluoro-m-tolyl)pyrazolo[1,5-a]pyrimidine-2-carboxamide], the “Result (protection from pentylenetetrazole clonic seizures)” value [3] was “Active” and the “Result (inhibition of 3H-diazepam binding)” value [2] was “Active”.
In the case of N#Cc1cnn2c(-c3ccccc3C(F)(F)F)ccnc12 [Example 21, 7-(α,α,α-Trifluoro-o-tolyl)pyrazolo[1,5-a]pyrimidine-3-carbonitrile], the “Result (number of shocks taken vs control, conflict procedure)” value [1] was “Active”.
With Cc1cnc2c(C#N)cnn2c1-c1cccc(C(F)(F)F)c1 [Example 23, 6-Methyl-7-(α,α,α-trifluoro-m-tolyl)pyrazolo-[1,5-a]pyrimidine-3-carbonitrile] the “Result (protection from pentylenetetrazole clonic seizures)” value [3] was “Active” and the “Result (inhibition of 3H-diazepam binding)” value [2] was “Active”.
In the case of Cc1cnc2ccnn2c1-c1cccc(C(F)(F)F)c1 [Example 24, 6-Methyl-7-(α,α,α-trifluoro-m-tolyl)pyrazolo[1,5-a]pyrimidine], the “Result (number of shocks taken vs control, conflict procedure)” value [1] was “Active” and the “Result (inhibition of 3H-diazepam binding)” value [2] was “Active”.
Cc1cnc2c(Cl)cnn2c1-c1cccc(C(F)(F)F)c1 [Example 25, 3-Chloro-6-methyl-7-(α,α,α-trifluoro-m-tolyl)pyrazolo[1,5-a]pyrimidine] was tested, and the “Result (number of shocks taken vs control, conflict procedure)” value [1] was “Active” and the “Result (inhibition of 3H-diazepam binding)” value [2] was “Active”.
With COc1cccc(-c2ccnc3c(C#N)cnn23)c1 [Example 27, 7-(m-Methoxyphenyl)pyrazolo[1,5-a]pyrimidine-3-carbonitrile] the “Result (protection from pentylenetetrazole clonic seizures)” value [3] was “Active” and the “Result (inhibition of 3H-diazepam binding)” value [2] was “Active”.
With O=Cc1cnn2c(-c3cccc(C(F)(F)F)c3)ccnc12 [Example 48, 7-(α,α,α-Trifluoro-m-tolyl)pyrazolo[1,5-a]pyrimidine-3-carboxaldehyde] the “Result (protection from pentylenetetrazole clonic seizures)” value [3] was “Active”.
With ON=Cc1cnn2c(-c3cccc(C(F)(F)F)c3)ccnc12 [Example 49, 7-(α,α,α-Trifluoro-m-tolyl)pyrazolo[1,5-a]pyrimidine-3-carboxaldehyde, oxime] the “Result (protection from pentylenetetrazole clonic seizures)” value [3] was “Active”.
In the case of CC(=O)c1cnn2c(-c3cccc(C(F)(F)F)c3)ccnc12 [Example 54, Methyl 7-(α,α,α-trifluoro-m-tolyl)pyrazolo[1,5-a]pyrimid-3-yl ketone], the “Result (protection from pentylenetetrazole clonic seizures)” value [3] was “Active”.
For CCOC(=O)c1ncn2c(-c3cccc(C(F)(F)F)c3)ccnc12 [Example 56, Ethyl 4-(α,α,α-trifluoro-m-tolyl)imidazolo[1,5-a]pyrimidine-8-carboxylate], the “Result (protection from pentylenetetrazole clonic seizures)” value [3] was “Active”.
In the case of CCOC(=O)c1cnn2c(-c3ccc(OC)c(OC)c3)ccnc12 [Example 59, Ethyl 7-(3,4-dimethoxyphenyl)pyrazolo[1,5-a]pyrimidine-3-carboxylate], the “Result (protection from pentylenetetrazole clonic seizures)” value [3] was “Active”.
CCOC(=O)c1cnn2c(-c3ccc(CC)cc3)ccnc12 [Example 61, Ethyl 7-(p-ethylphenyl)pyrazolo[1,5-a]pyrimidine-3-carboxylate] was tested, and the “Result (protection from pentylenetetrazole clonic seizures)” value [3] was “Active”.
For CCOC(=O)c1cnn2c(-c3ccc(C)c(C)c3)ccnc12 [Example 63, Ethyl 7-(3,4-xylyl)pyrazolo[1,5-a]pyrimidine-3-carboxylate], the “Result (protection from pentylenetetrazole clonic seizures)” value [3] was “Active”.
For FC(F)(F)c1cccc(-c2ccn3nccc3n2)c1 [Example 66, 5-(α,α,α-Trifluoro-m-tolyl)pyrazolo[1,5-a]pyrimidine], the “Result (protection from pentylenetetrazole clonic seizures)” value [3] was “Active”.
With c1ccc(-c2ccn3nccc3n2)cc1 [Example 67, 5-Phenylpyrazolo[1,5-a]pyrimidine] the “Result (protection from pentylenetetrazole clonic seizures)” value [3] was “Active”.
In the case of N#Cc1cnn2c(-c3cccc(F)c3)ccnc12 [Example 76, 7-(m-Fluorophenyl)pyrazolo[1,5-a]pyrimidine-3-carbonitrile], the “Result (protection from pentylenetetrazole clonic seizures)” value [3] was “Active”.
With CCOC(=O)c1cnn2c(-c3cccc(C)c3)ccnc12 [Example 77, Ethyl 7-(m-tolyl)pyrazolo[1,5-a]pyrimidine-3-carboxylate] the “Result (protection from pentylenetetrazole clonic seizures)” value [3] was “Active”.
For CN(C)CCOC(=O)c1cnn2c(-c3cccc(C(F)(F)F)c3)ccnc12 [Example 79, 2-Dimethylaminoethyl 7-(α,α,α-trifluoro-m-tolyl)pyrazolo[1,5-a]-pyrimidine-3-carboxylate], the “Result (protection from pentylenetetrazole clonic seizures)” value [3] was “Active”.
For COCc1cnn2c(-c3cccc(C(F)(F)F)c3)ccnc12 [Example 80, 3-(Methoxymethyl)-7-(α,α,α-trifluoro-m-tolyl)pyrazolo[1,5-a]-pyrimidine], the “Result (protection from pentylenetetrazole clonic seizures)” value [3] was “Active”.
